Data: paper PMC6219514, “Structural basis of Gip1 for cytosolic sequestration of G protein in wide-range chemotaxis” (Nature Communications, 2018)

Molecular target: T1, GFP-Flag-tagged Gip1 (Gip1-GFPF) in complex with G proteins (Dictyostelium discoideum, UniProt Q55BQ2)
T1 construct: gene DDB_G0271086; full-length Gip1 (1-310) with GFP-Flag tag, expressed in Dictyostelium cells, on anti-Flag beads with co-purified G proteins; Gγ geranylgeranylated at Cys66
Experiment: competitive dissociation of G proteins from bead-bound Gip1, immunoblot
Assay type: biochemical
Conditions: CHAPS buffer pH 7.5, 4 °C, 1 h, 3.5% methanol

T1 sequence (Q55BQ2 entry or part of it, one chain of several): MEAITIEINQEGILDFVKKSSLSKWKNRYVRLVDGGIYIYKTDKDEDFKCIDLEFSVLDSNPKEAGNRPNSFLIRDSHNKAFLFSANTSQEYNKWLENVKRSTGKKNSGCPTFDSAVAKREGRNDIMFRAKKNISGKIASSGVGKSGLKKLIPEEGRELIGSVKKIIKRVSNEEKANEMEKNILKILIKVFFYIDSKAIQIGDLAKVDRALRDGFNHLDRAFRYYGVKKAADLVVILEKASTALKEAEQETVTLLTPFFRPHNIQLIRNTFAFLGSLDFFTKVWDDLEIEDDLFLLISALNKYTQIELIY

Row | Structure (SMILES) | relative band intensity (100 µM) | relative band intensity (0-100 µM, competitive with geranylgeranylated Gγ)
1 | CC(C)=CCC/C(C)=C/CC/C(C)=C/COP(=O)(O)OP(=O)(O)O [farnesyl pyrophosphate] | Farnesyl pyrophosphate showed slight impairment of the Gip1–G protein complex | 
2 | CC(C)=CCC/C(C)=C/CC/C(C)=C/CC/C(C)=C/COP(=O)(O)OP(=O)(O)O [GG-pyroP, geranylgeranyl pyrophosphate] |  | the complex formation was competitively inhibited by the addition of geranylgeranyl pyrophosphate
